Test results taken from ChEMBL document CHEMBL5252530, “Biological importance of structurally diversified chromenes” (Eur J Med Chem, 2016).
Values after ≈ are worked out from the molar mass of the structure shown.

What was measured:
Acetylcholinesterase [1] = target: Acetylcholinesterase (Homo sapiens, UniProt P22303); test: Inhibition of recombinant human AChE assessed as hydrolysis of acetylthiocholine by Ellman's method
KB [2] = test: Cytotoxicity against human KB cells; assay type: functional; settings: read-out: ED50 (the source's name)
[3] = Cytotoxicity against human Lu1 cells; assay type: functional; settings: read-out: ED50 (the source's name)
Col2 = test: Cytotoxicity against human Col2 cells; assay type: functional; settings: read-out: ED50 (the source's name)
LNCaP = test: Cytotoxicity against human LNCaP cells; assay type: functional; settings: read-out: ED50 (the source's name)
[4] = Selectivity ratio of Ki for bovine 5-HT1B to rat 5-HT1B
[5] = Binding affinity to bovine 5-HT1B; parameters: species or system Bos taurus
[6] = target: 5-hydroxytryptamine receptor 1B (Rattus norvegicus, UniProt P28564); test: Binding affinity to rat 5-HT1B
[7] = test system: Selenastrum capricornutum; test: Algicidal activity against Selenastrum capricornutum; assay type: functional, organism-based
Planktothrix perornata = test: Algicidal activity against Planktothrix perornata; assay type: functional, organism-based
Rattus norvegicus = test: Antiinflammatory activity in rat assessed as inhibition of the carrageenan-induced right hind paw edema at 0.1 mmol/kg; assay type: functional; parameters: scale not given: the % may be the effect or the level left
KB [8] = test: Cytotoxicity against human KB cells assessed as inhibition of cell growth incubated for 72 hrs by neutral red dye based colorimetric assay; assay type: functional
[9] = target: Chymotrypsinogen A (Bos taurus) (UniProt P00766); test: Inactivation of bovine alpha-chymotrypsin assessed as Ki/KI ratio at pH 7.5
[10] = Inhibition of ECE (unknown origin); parameters: species or system Homo sapiens
Cannabinoid receptor 2 = Cannabinoid receptor 2 (Homo sapiens, UniProt P34972); test: Binding affinity to CB2 (unknown origin)
Plasmodium falciparum [11] = test: Antimalarial activity against chloroquine-resistant Plasmodium falciparum Dd2; assay type: functional, organism-based
Plasmodium falciparum [12] = test: Antimalarial activity against chloroquine-susceptible Plasmodium falciparum 3D7; assay type: functional, organism-based
[13] = test system: Human immunodeficiency virus 1; test: Antiviral activity against HIV-1 3B in human H9 cells incubated for 4 days by ELISA; assay type: functional, organism-based; settings: Human immunodeficiency virus 1, 3B, H9, 96 h
[14] = Therapeutic index, ratio of IC50 for human H9 cells to EC50 for HIV-1 3B in human H9 cells; assay type: toxicity, cell-based; settings: read-out: Ratio IC50/EC50
Acetylcholinesterase [15] = target: T1, Acetylcholinesterase (Electrophorus electricus, UniProt O42275); test: Competitive inhibition of electric eel acetyl cholinesterase measured for 3 mins by Ellman's method
Acetylcholinesterase [16] = target: T1, Acetylcholinesterase; test: Inhibition of electric eel AChE (type VI-S) using acetylthiocholine iodide as substrate preincubated for 15 mins followed by substrate addition by Ellman's method
Leishmania major = test: Antileishmanial activity against Leishmania major promastigotes assessed as inhibition of [3H]thymidine uptake preincubated for 2 hrs followed by addition of [3H]thymidine measured after 18 hrs by scintillation counting; assay type: functional, organism-based
[17] = target: Chymotrypsinogen A (Bos taurus) (UniProt P00766); test: Inactivation of bovine alpha-chymotrypsin assessed as Ki/KI ratio

T1 sequence (O42275 whole entry): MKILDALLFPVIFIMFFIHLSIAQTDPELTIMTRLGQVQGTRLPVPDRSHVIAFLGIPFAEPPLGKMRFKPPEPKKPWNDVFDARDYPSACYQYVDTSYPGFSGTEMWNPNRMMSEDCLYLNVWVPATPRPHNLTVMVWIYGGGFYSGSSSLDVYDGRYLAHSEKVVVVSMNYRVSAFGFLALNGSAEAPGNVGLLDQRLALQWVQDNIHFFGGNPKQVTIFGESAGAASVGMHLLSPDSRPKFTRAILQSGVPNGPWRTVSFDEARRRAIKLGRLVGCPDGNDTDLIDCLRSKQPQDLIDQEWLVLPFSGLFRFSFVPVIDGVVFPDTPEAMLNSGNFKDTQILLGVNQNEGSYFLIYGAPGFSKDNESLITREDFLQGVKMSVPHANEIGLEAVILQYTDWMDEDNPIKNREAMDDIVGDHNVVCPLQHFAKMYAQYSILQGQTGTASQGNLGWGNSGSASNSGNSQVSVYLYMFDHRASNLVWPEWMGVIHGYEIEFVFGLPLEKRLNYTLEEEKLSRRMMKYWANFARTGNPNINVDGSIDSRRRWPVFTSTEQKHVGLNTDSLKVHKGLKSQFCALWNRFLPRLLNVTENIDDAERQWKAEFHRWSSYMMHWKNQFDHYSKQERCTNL
Acetylcholinesterase (Homo sapiens, UniProt P22303), sequence (P22303 whole entry): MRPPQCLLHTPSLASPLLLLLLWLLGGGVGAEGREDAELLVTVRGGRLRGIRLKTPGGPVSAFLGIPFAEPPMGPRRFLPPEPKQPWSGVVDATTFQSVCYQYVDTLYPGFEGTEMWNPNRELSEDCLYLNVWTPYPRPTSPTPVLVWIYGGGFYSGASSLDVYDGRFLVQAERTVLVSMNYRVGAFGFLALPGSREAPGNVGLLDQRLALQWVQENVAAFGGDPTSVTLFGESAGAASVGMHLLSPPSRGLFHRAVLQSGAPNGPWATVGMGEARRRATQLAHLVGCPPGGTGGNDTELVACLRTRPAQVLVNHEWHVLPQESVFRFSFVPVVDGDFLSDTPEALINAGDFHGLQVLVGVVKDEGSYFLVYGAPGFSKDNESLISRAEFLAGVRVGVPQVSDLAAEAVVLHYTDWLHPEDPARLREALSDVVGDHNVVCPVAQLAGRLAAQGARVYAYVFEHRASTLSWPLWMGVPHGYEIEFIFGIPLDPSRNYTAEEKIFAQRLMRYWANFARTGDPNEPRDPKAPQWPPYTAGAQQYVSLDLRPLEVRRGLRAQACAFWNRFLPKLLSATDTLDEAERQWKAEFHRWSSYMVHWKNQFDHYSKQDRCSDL
Cannabinoid receptor 2, sequence (P34972 whole entry): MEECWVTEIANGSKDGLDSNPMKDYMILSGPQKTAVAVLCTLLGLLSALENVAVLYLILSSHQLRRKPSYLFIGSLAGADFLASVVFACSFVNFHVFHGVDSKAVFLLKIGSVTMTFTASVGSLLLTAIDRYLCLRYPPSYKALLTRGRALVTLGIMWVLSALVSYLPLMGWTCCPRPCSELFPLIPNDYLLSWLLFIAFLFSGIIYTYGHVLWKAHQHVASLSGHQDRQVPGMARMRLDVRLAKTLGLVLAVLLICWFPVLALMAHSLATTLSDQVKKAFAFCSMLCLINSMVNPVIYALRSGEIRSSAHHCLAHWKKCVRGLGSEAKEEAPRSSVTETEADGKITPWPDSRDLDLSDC
5-hydroxytryptamine receptor 1B, sequence (P28564 whole entry): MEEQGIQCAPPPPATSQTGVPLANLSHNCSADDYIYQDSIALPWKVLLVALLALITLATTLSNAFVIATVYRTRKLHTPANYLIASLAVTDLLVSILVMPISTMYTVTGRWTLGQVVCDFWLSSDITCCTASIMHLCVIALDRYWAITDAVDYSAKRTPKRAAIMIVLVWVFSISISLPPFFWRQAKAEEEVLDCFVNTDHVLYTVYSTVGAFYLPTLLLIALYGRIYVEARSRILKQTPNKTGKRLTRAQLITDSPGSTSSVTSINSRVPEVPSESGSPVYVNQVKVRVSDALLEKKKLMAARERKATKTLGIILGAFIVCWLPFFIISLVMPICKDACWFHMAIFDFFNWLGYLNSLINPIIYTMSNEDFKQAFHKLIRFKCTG

Structure (SMILES): COc1cc2cc(-c3ccc(CN(C)Cc4ccccc4)cc3)c(=O)oc2cc1OC
- Ki (Acetylcholinesterase [1]): 0.0445 µM

Structure (SMILES): CCN(Cc1ccccc1)Cc1ccc(-c2cc3cc(OC)c(OC)cc3oc2=O)cc1
- Ki (Acetylcholinesterase [1]): 0.0105 µM

Structure (SMILES): CC(C)=CCc1c(O)c(C(=O)CC(C)CO)c2oc(=O)cc(-c3ccccc3)c2c1O (stereo unspecified)
- EC50 (KB [2]): 11.1 µg/mL (≈ 26.3 µM)
- EC50 [3]: 11.1 µg/mL (≈ 26.3 µM)
- EC50 (Col2): 11.1 µg/mL (≈ 26.3 µM)
- EC50 (LNCaP): 11.1 µg/mL (≈ 26.3 µM)

Structure (SMILES): C1=C(CN2CCOCC2)COc2c1cccc2OCC1COCCN1 (stereo unspecified)
- Ratio Ki [4]: 13
- Ki [5]: 0.63 µM
- Ki [6]: 0.047 µM

Structure (SMILES): CC(C)CC(=O)N(C)CCc1ccc2c(c1)C=CC(C)(C)O2
- Activity [7]: 100 µM
- IC50 ([7]; Selenastrum capricornutum): 12.6 µM
- Activity (Planktothrix perornata): 10 µM
- IC50 (Planktothrix perornata; Planktothrix perornata): 2.3 µM

Structure (SMILES): Cc1cc(=O)oc2c3c(ccc12)OC(C)(c1ccccc1)O3 (stereo unspecified)
- Activity (Rattus norvegicus): 55%

Structure (SMILES): C=C(C)C(O)Cc1c(O)c(C(=O)C(C)CC)c(O)c2c(CCC)cc(=O)oc12 (stereo unspecified)
- IC50 (KB [8]): 4 µg/mL (≈ 10.3 µM)

Structure (SMILES): O=C(Oc1cccc(Cl)c1)c1cc2cc(CCl)ccc2oc1=O
- Ratio [9]: 7.6 10^5/M/s

Structure (SMILES): C=C(C)C(O)Cc1c(O)c(C(=O)C(C)C)c(O)c2c(-c3ccccc3)cc(=O)oc12 (stereo unspecified)
- IC50 (KB [8]): 4 µg/mL (≈ 9.79 µM)

Structure (SMILES): C=C(C)C(O)Cc1c(O)c(C(=O)C(C)CC)c(O)c2c(-c3ccccc3)cc(=O)oc12 (stereo unspecified)
- IC50 (KB [8]): 4 µg/mL (≈ 9.47 µM)

Structure (SMILES): CC1(C)C=Cc2c(ccc3c2O[C@H](O)[C@H]2c4ccc(O)cc4O[C@@H]32)O1
- IC50 [10]: 9 µM

Structure (SMILES): CC(C)CC(=O)c1c(O)cc(O)c2c(-c3ccccc3)cc(=O)oc12 [ISODISPAR B]
- IC50 (KB [8]): 4 µg/mL (≈ 11.8 µM)

Structure (SMILES): COc1cc2cc(-c3ccc(C[N+](C)(C)Cc4ccccc4)cc3)c(=O)oc2cc1OC
- Ki (Acetylcholinesterase [1]): 0.0105 µM

Structure (SMILES): COc1cc2cc(-c3ccc(CN(CCO)Cc4ccccc4)cc3)c(=O)oc2cc1OC
- Ki (Acetylcholinesterase [1]): 0.0105 µM

Structure (SMILES): CCCCCCC(C)(C)c1cc(O)c2c(c1)oc(=O)c1ccc(OC)cc12
- Ki (Cannabinoid receptor 2): 0.0067 µM

Structure (SMILES): CCCCCCC(C)(C)c1cc(O)c2c(c1)oc(=O)c1ccc(C)cc12
- Ki (Cannabinoid receptor 2): 0.0031 µM

Structure (SMILES): COc1ccc2c(c1)c(CC(=O)O)c(C)n2C(=O)c1ccc(Cl)cc1 [INDOMETHACIN]
- Activity (Rattus norvegicus): 47%

Structure (SMILES): Cc1cccc2oc(=O)c3c(c12)O[C@H](C)[C@@]3(C)CC(=O)C1OC1(C)C (stereo partly specified)
- IC50 (Plasmodium falciparum [11]): > 50 µM
- IC50 (Plasmodium falciparum [12]): > 50 µM

Structure (SMILES): CC(C)=CCC/C(C)=C/CC[C@@]1(C)C=Cc2c(cc(C)c(C(=O)O)c2O)O1 [DAURICHROMENIC ACID]
- EC50 [13]: 5.67 µg/mL (≈ 15.3 µM)
- selectivity ratio [14]: 3.71

Structure (SMILES): CC(C)=CCCC1(C)C=Cc2c(cc(O)c3c(=O)c4cccc(O)c4oc23)O1 (stereo unspecified)
- Ki (Acetylcholinesterase [15]): 1.9 µM
- IC50 (Acetylcholinesterase [16]): 8.47 µM
- Ki (Acetylcholinesterase [16]): 3.43 µM

Structure (SMILES): CCC(C)c1cc(=O)oc2c(C(=O)CC(C)CO)c(O)c(CC=C(C)C)c(O)c12 (stereo unspecified)
- EC50 (KB [2]): 11.1 µg/mL (≈ 27.6 µM)
- EC50 [3]: 11.1 µg/mL (≈ 27.6 µM)
- EC50 (Col2): 11.1 µg/mL (≈ 27.6 µM)
- EC50 (LNCaP): 11.1 µg/mL (≈ 27.6 µM)

Structure (SMILES): CCOC(=O)C1(CC)Oc2ccc3c(C)cc(=O)oc3c2O1 (stereo unspecified)
- Activity (Rattus norvegicus): 55%

Structure (SMILES): Cc1cccc2oc(=O)c3c(c12)O[C@@H](C)[C@@]3(C)CC(=O)C1OC1(C)C (stereo partly specified)
- IC50 (Plasmodium falciparum [11]): > 50 µM
- IC50 (Plasmodium falciparum [12]): > 50 µM
- IC50 (Leishmania major): 13.4 µM

Structure (SMILES): O=C(Oc1cccc(Cl)n1)c1cc2cc(CCl)ccc2oc1=O
- Ratio [17]: 1.1 10^5/M/s
